Earlier results as cited in US7378418B2, “Azabicyclic heterocycles as cannabinoid receptor modulators” (Bristol-Myers Squibb Company, priority 2003, dated 2008).

How the values were obtained:
[1] = chronic administration for two weeks (Hildebrandt et al. 2003)
human subjects = conditions: 16 week trial period, published Phase IIb data

| SMILES | body weight [1] | body weight (human subjects) |
| --- | --- | --- |
| Cc1c(C(=O)NN2CCCCC2)nn(-c2ccc(Cl)cc2Cl)c1-c1ccc(I)cc1 [AM-251] | substantial body weight reduction | – |
| Cc1c(C(=O)NN2CCCCC2)nn(-c2ccc(Cl)cc2Cl)c1-c1ccc(Cl)cc1 [SR-141716] | – | dose-dependently reduced body weight |
